Source: PubChem BioAssay AID330 (DTP/NCI, 2004)
Several values for one entry are separate records, joined by “and”; a condition that tells them apart may be missing. Identical values can stand only once. Inconclusive results and toxic doses are left out. Rule for the calls: active = survival T/C of 150% or more; inactive = T/C below 125% in these data. Peptide text beside a SMILES is read from it.

System: P388 leukemia ip, CD2F1 mice, survival T/C
Assay: NCI In Vivo Anticancer Drug Screen. Data for tumor model P388 Leukemia (intraperitoneal) in CD2F1 (CDF1) mice
Conditions: endpoint: median survival time, higher = longer survival
In short: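 Mice carrying the transplanted tumor received test compound or vehicle. Survival was recorded in each group, and the value is the treated-group measurement divided by that of the vehicle-treated control group.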

[1] = dose: 200.0 mg/kg/injection, schedule: Q04DX003 (ip), vehicle: saline
[2] = dose: 50.0 mg/kg/injection, schedule: Q01DX009 (ip), vehicle: saline
[3] = dose: 100.0 mg/kg/injection, schedule: Q01DX009 (ip), vehicle: saline
[4] = dose: 200.0 mg/kg/injection, schedule: Q01DX009 (ip), vehicle: saline
[5] = dose: 50.0 mg/kg/injection, schedule: Q01DX005 (ip), vehicle: saline with Tween-80
[6] = dose: 100.0 mg/kg/injection, schedule: Q01DX005 (ip), vehicle: saline with Tween-80
[7] = dose: 200.0 mg/kg/injection, schedule: Q01DX005 (ip), vehicle: saline with Tween-80
[8] = dose: 50.0 mg/kg/injection, schedule: Q01DX009 (ip), vehicle: suspension in saline
[9] = dose: 100.0 mg/kg/injection, schedule: Q01DX009 (ip), vehicle: suspension in saline

Measured: T/C

NCCNCCN1C(=O)c2cccc3cccc(c23)C1=O
inactive: dose: 100.0 mg/kg/injection, schedule: Q01DX001 (ip), vehicle: saline 110 % of control | dose: 200.0 mg/kg/injection, schedule: Q01DX001 (ip), vehicle: saline 86 % of control

O=c1c2cocc2c(O)c2n1Cc1cc3ccccc3nc1-2
inactive: dose: 50.0 mg/kg/injection, schedule: Q01DX001 (ip), vehicle: saline with Tween-80 100 % of control and 101 % of control | dose: 100.0 mg/kg/injection, schedule: Q01DX001 (ip), vehicle: saline with Tween-80 99 % of control and 110 % of control and 120 % of control | dose: 200.0 mg/kg/injection, schedule: Q01DX001 (ip), vehicle: saline with Tween-80 99 % of control and 110 % of control and 120 % of control | dose: 400.0 mg/kg/injection, schedule: Q01DX001 (ip), vehicle: saline with Tween-80 100 % of control and 102 % of control and 112 % of control

CCCCCCCCCC(=O)NC(CN1CCOCC1)C(=O)c1ccccc1 (configuration not stated)
inactive: [1] 87 % of control | dose: 400.0 mg/kg/injection, schedule: Q04DX003 (ip), vehicle: saline 88 % of control

CCCCCCCCCCCCCCCCOc1ccc(S(=O)(=O)N/N=c2/sc(-c3ccccc3Cl)nn2C)cc1C(=O)O
inactive: [2] 100 % of control | [3] 100 % of control | [4] 96 % of control

COc1nc(N)c([N+](=O)[O-])c(C(Br)Br)n1
inactive: dose: 6.25 mg/kg/injection, schedule: Q01DX005 (ip), vehicle: Klucel (hydroxypropylcellulose) (HPC) 104 % of control | dose: 12.5 mg/kg/injection, schedule: Q01DX005 (ip), vehicle: Klucel (hydroxypropylcellulose) (HPC) 100 % of control | dose: 25.0 mg/kg/injection, schedule: Q01DX005 (ip), vehicle: Klucel (hydroxypropylcellulose) (HPC) 91 % of control

OCCN(CCO)C1c2ccccc2-c2ccccc21
inactive: [5] 98 % of control | [6] 89 % of control | [7] 90 % of control

CC(=O)Nc1ccc(S(=O)(=O)CC#N)cc1
inactive: [8] 87 % of control | [9] 93 % of control

O=C1C=C(NCC2CCCN3CCCCC23)C(=O)c2ccccc21 (configuration not stated)
inactive: dose: 94.62 mg/kg/injection, schedule: Q04DX002 (ip), vehicle: Klucel (hydroxypropylcellulose) (HPC) 112 % of control | dose: 189.25 mg/kg/injection, schedule: Q04DX002 (ip), vehicle: Klucel (hydroxypropylcellulose) (HPC) 111 % of control

c1ccc2sc(SSc3nc4ccccc4s3)nc2c1
inactive: dose: 50.0 mg/kg/injection, schedule: Q01DX009 (ip), vehicle: saline with Tween-80 110 % of control | dose: 100.0 mg/kg/injection, schedule: Q01DX009 (ip), vehicle: saline with Tween-80 108 % of control | dose: 200.0 mg/kg/injection, schedule: Q01DX009 (ip), vehicle: saline with Tween-80 104 % of control | dose: 400.0 mg/kg/injection, schedule: Q01DX009 (ip), vehicle: saline with Tween-80 109 % of control

CCOC(=S)SCC(=O)C1(O)Cc2c(O)c3c(c(O)c2C(OC2CC(N)C(O)C(C)O2)C1)C(=O)c1c(OC)cccc1C3=O (configuration not stated)
inactive: dose: 1.56 mg/kg/injection, schedule: Q01DX009 (ip), vehicle: other 120 % of control | dose: 3.13 mg/kg/injection, schedule: Q01DX009 (ip), vehicle: other 123 % of control | dose: 37.5 mg/kg/injection, schedule: Q04DX003 (ip), vehicle: other 121 % of control | dose: 75.0 mg/kg/injection, schedule: Q04DX003 (ip), vehicle: other 94 % of control | dose: 150.0 mg/kg/injection, schedule: Q04DX003 (ip), vehicle: other 99 % of control

S=C(Nc1ccc(Br)cc1)SCc1ccc(Cl)cc1
inactive: [8] 97 % of control | [9] 105 % of control | dose: 200.0 mg/kg/injection, schedule: Q01DX009 (ip), vehicle: suspension in saline 119 % of control

NCCCCC(NC(=O)C(Cc1cnc[nH]1)NC(=O)CN)C(=O)O (stereo not drawn) (H-Gly-His-Lys-OH; configuration not given here)
inactive: dose: 50.0 mg/kg/injection, schedule: Q01DX005 (ip), vehicle: saline 109 % of control | dose: 100.0 mg/kg/injection, schedule: Q01DX005 (ip), vehicle: saline 104 % of control | dose: 200.0 mg/kg/injection, schedule: Q01DX005 (ip), vehicle: saline 100 % of control

CC1CCCN2C(=O)CN(c3ccccc3)CC(=O)N12 (configuration not stated)
inactive: [5] 98 % of control | [6] 103 % of control | [7] 99 % of control

O=C(O)C(CBr)CBr
inactive: dose: 25.0 mg/kg/injection, schedule: Q01DX009 (ip), vehicle: water 107 % of control | dose: 50.0 mg/kg/injection, schedule: Q01DX009 (ip), vehicle: water 106 % of control | dose: 100.0 mg/kg/injection, schedule: Q01DX009 (ip), vehicle: water 100 % of control

Cc1cc[n+](C2=C(Nc3ccc(Cl)cc3Cl)C(=O)c3ccccc3C2=O)cc1
inactive: dose: 60.0 mg/kg/injection, schedule: Q01DX005 (ip), vehicle: saline with Tween-80 99 % of control | dose: 120.0 mg/kg/injection, schedule: Q01DX005 (ip), vehicle: saline with Tween-80 106 % of control | dose: 240.0 mg/kg/injection, schedule: Q01DX005 (ip), vehicle: saline with Tween-80 108 % of control

C=C(CO)C(=O)OC1CC(=C)C2CC(O)C(=C)C2[C@H]2OC(=O)C(=C)C12 (some centres not stated)
inactive: dose: 3.75 mg/kg/injection, schedule: Q01DX009 (ip), vehicle: saline 92 % of control | dose: 7.5 mg/kg/injection, schedule: Q01DX009 (ip), vehicle: saline 99 % of control | dose: 15.0 mg/kg/injection, schedule: Q01DX009 (ip), vehicle: saline 108 % of control

COC(=O)C1(CC(=O)c2ccc(C)cc2)NC(=S)NC(=O)C1C#N (configuration not stated)
inactive: dose: 60.0 mg/kg/injection, schedule: Q01DX005 (ip), vehicle: saline 100 % of control | dose: 120.0 mg/kg/injection, schedule: Q01DX005 (ip), vehicle: saline 104 % of control | dose: 240.0 mg/kg/injection, schedule: Q01DX005 (ip), vehicle: saline 100 % of control

C=C(C#N)C(NC(C)(C)C)c1ccccc1 (configuration not stated)
inactive: dose: 12.5 mg/kg/injection, schedule: Q01DX001 (ip), vehicle: saline 96 % of control | dose: 25.0 mg/kg/injection, schedule: Q01DX001 (ip), vehicle: saline 100 % of control | dose: 50.0 mg/kg/injection, schedule: Q01DX001 (ip), vehicle: saline 115 % of control

[O-][n+]1c(-c2ccccc2)c(Cl)c(-c2ccccc2)n1O
inactive: dose: 1.5 mg/kg/injection, schedule: Q01DX005 (ip), vehicle: Klucel + Tween-80 99 % of control | dose: 3.0 mg/kg/injection, schedule: Q01DX005 (ip), vehicle: Klucel + Tween-80 100 % of control | dose: 6.0 mg/kg/injection, schedule: Q01DX005 (ip), vehicle: Klucel + Tween-80 96 % of control | dose: 60.0 mg/kg/injection, schedule: Q01DX005 (ip), vehicle: Klucel + Tween-80 98 % of control

CCCCCC(/C=C/C1C(O[Si](C)(C)C(C)(C)C)CC(N(C)C)C1(C/C=C/CCCC#N)S(=O)(=O)c1ccccc1)O[Si](C)(C)C(C)(C)C (configuration not stated)
inactive: dose: 60.0 mg/kg/injection, schedule: Q01DX005 (ip), vehicle: Klucel (hydroxypropylcellulose) (HPC) 86 % of control | dose: 120.0 mg/kg/injection, schedule: Q01DX005 (ip), vehicle: Klucel (hydroxypropylcellulose) (HPC) 86 % of control

COCCCN=C(N)N
inactive: dose: 50.0 mg/kg/injection, schedule: Q04DX003 (ip), vehicle: saline 109 % of control | dose: 100.0 mg/kg/injection, schedule: Q04DX003 (ip), vehicle: saline 100 % of control | [1] 95 % of control

O=C(O)CNCC(=O)O
inactive: dose: 12.5 mg/kg/injection, schedule: Q01DX009 (ip), vehicle: saline 94 % of control | dose: 25.0 mg/kg/injection, schedule: Q01DX009 (ip), vehicle: saline 99 % of control | [2] 93 % of control | [3] 100 % of control and 98 % of control | [4] 100 % of control | dose: 400.0 mg/kg/injection, schedule: Q01DX009 (ip), vehicle: saline 90 % of control

CC(=O)c1nn(-c2ccccc2)c(=O)cc1C
inactive: [5] 100 % of control | [6] 98 % of control | [7] 100 % of control

C/C(=N\N=C(\N)N1CCOCC1)c1ccc2c(c1)Cc1c(/C(C)=N/N=C(\N)N3CCOCC3)cccc1-2
inactive: dose: 12.5 mg/kg/injection, schedule: Q04DX002 (ip), vehicle: saline with Tween-80 102 % of control | dose: 25.0 mg/kg/injection, schedule: Q04DX002 (ip), vehicle: saline with Tween-80 97 % of control | dose: 50.0 mg/kg/injection, schedule: Q04DX002 (ip), vehicle: saline with Tween-80 103 % of control

COC1/C=C/OC2(C)Oc3c(C)c(O)c4c(c3C2=O)C(=O)C([N+](=O)[O-])=C(NC(=O)C(C)=C/C=C\C(C)C(O)C(C)C(O)C(C)C(OC(C)=O)C1C)C4=O (configuration not stated)
inactive: dose: 100.0 mg/kg/injection, schedule: Q01DX009 (ip), vehicle: Klucel (hydroxypropylcellulose) (HPC) 90 % of control | dose: 200.0 mg/kg/injection, schedule: Q01DX009 (ip), vehicle: Klucel (hydroxypropylcellulose) (HPC) 98 % of control
